Assay [1] addresses 3',5'-cyclic-AMP phosphodiesterase 4B (Homo sapiens, UniProt Q07343). Kind of assay: Inhibition of core catalytic domains PDE4B (unknown origin).
The target in assay [2] is T1, cGMP-inhibited 3',5'-cyclic phosphodiesterase 3A (Homo sapiens, UniProt Q14432). Kind of assay: Inhibition of core catalytic domains PDE3A (unknown origin).
The subject of assay [3] is Rattus norvegicus. As to the kind of experiment: Antiinflammatory activity in LPS-stimulated rat assessed as total number of leukocytes in bronchoalveolar lavage fluid at 3 mg/kg, po administered 1 hr before LPS challenge measured after 3 hrs. In kind it is functional, Lung.
In assay [4] the target is T1, cGMP-inhibited 3',5'-cyclic phosphodiesterase 3A. As to the kind of experiment: Inhibition of core catalytic domains PDE3A (unknown origin) at 100 uM.
In assay [5] the test system is Rattus norvegicus. Kind of assay: Antiinflammatory activity in LPS-stimulated rat assessed as total number of leukocytes in bronchoalveolar lavage fluid at 10 mg/kg, po administered 1 hr before LPS challenge measured after 3 hrs. It is filed as functional, Lung.
In assay [6] the test system is Rattus norvegicus. As to the kind of experiment: Antiinflammatory activity in LPS-stimulated rat assessed as total number of leukocytes in bronchoalveolar lavage fluid at 1 mg/kg, po administered 1 hr before LPS challenge measured after 3 hrs. In kind it is functional, Lung.

The source made the active and inactive calls. The calls are words filed in the database; no cut-off is given here.

T1 sequence (Q14432 whole entry, the tested form may be a part): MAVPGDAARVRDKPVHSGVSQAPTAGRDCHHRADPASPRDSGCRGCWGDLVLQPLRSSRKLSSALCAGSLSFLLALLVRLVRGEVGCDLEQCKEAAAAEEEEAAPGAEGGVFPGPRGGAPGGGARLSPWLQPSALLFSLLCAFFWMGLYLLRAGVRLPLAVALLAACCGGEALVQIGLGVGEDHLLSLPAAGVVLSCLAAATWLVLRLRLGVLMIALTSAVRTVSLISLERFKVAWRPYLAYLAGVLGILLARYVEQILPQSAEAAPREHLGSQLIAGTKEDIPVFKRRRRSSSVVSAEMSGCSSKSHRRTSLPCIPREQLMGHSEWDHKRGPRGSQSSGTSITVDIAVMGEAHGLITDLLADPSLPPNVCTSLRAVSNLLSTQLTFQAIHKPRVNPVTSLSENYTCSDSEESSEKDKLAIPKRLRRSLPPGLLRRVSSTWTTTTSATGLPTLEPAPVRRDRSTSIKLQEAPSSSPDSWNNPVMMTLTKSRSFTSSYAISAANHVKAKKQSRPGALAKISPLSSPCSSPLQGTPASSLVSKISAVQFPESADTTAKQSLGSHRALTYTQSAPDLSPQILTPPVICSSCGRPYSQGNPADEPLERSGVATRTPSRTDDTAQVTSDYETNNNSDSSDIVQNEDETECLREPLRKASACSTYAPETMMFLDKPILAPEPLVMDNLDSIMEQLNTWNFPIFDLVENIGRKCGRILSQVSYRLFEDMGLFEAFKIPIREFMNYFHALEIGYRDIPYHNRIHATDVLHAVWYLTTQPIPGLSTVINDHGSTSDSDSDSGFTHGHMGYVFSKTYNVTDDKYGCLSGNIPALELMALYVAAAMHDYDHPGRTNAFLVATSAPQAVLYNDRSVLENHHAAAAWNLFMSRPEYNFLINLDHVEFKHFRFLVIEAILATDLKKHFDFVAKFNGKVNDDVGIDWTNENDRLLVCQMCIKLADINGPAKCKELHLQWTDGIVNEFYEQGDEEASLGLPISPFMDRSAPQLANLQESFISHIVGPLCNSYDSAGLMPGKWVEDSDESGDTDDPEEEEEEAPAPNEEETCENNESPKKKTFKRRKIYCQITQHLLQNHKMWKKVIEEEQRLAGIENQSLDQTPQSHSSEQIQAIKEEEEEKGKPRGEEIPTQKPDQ
Sequence of 3',5'-cyclic-AMP phosphodiesterase 4B (Q07343 whole entry, the tested form may be a part): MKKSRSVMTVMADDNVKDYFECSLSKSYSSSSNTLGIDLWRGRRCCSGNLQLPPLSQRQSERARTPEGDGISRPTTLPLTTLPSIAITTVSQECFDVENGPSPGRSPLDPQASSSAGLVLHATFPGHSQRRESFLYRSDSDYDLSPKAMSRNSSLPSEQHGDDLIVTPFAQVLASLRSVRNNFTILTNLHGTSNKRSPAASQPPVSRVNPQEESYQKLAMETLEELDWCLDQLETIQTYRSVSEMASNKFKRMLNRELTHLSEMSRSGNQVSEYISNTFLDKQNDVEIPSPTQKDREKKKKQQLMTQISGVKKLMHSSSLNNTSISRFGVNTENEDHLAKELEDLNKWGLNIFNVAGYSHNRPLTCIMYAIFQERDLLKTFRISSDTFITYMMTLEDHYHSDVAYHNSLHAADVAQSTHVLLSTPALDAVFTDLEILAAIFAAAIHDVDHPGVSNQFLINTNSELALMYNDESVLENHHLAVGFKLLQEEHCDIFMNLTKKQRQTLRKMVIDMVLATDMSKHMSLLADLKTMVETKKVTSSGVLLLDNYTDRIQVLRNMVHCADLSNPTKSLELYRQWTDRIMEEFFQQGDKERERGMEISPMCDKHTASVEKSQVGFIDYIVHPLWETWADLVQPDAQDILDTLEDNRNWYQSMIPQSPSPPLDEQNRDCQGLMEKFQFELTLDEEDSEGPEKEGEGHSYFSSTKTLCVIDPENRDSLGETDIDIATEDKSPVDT

Regarding `COc1ccc(C(=O)Nc2c(Cl)cncc2Cl)c2ccnn12`, the IC50 was 39 nM in assay [1] and over 100000 nM in assay [2]. In assay [3], the Activity amounted to 0%.

On to `CSc1ccc(C(=O)Nc2c(Cl)cncc2Cl)c2cc(C(F)(F)F)nn12`, for which the IC50 in assay [1] is 0.11 nM; in assay [2], over 100000 nM. Also, the Activity in assay [3] is 52%.

In the case of `COc1ccc(C(O)c2ccncc2)c2cc(C(F)(F)F)nn12` (centres undefined), in assay [1], the IC50 was determined as 10200 nM. Moreover, in assay [4], the inhibition entry is “inactive”.

Regarding `COc1ccc(C(=O)Nc2c(Cl)cncc2Cl)c2cc(C(=O)O)nn12`, in assay [1], half-maximal inhibition (IC50) required 550 nM. Also, the inhibition result in assay [4] was “inactive”.

For the compound `CC(O)c1ccc(C(=O)Nc2c(Cl)cncc2Cl)c2cc(C(F)(F)F)nn12` (centres undefined), the IC50 in assay [1] was 8 nM; in assay [2], over 100000 nM. Further, the Activity in assay [3] worked out at 59%.

Regarding `COc1ccc(C(=O)Nc2c(Cl)c[n+]([O-])cc2Cl)c2cc(C#N)nn12`, in assay [1], half-maximal inhibition (IC50) was put at 22 nM. In addition, in assay [4], the inhibition result was “inactive”. In addition, the Activity in assay [3] was determined as 61%.

The compound `COc1ccc(C(=O)Cc2c(Cl)cncc2Cl)c2cc(C(F)(F)F)nn12` displayed an IC50 in assay [1] of 2.9 nM. Moreover, the Activity in assay [5] was 87%. In addition, the inhibition entry in assay [4] is “inactive”.

`COc1ccc(C(O)Cc2ccncc2)c2cc(C(F)(F)F)nn12` (centres undefined) yielded a 50% inhibitory concentration (IC50) in assay [1] of 750 nM. For the same compound, the inhibition entry in assay [4] is “inactive”.

Regarding `COc1ccc(Cc2ccncc2)c2cc(C(F)(F)F)nn12`, the results for the IC50 in assay [1] and in assay [2] were 570 nM and over 100000 nM, respectively.

In turn, `O=C(Nc1c(Cl)cncc1Cl)c1ccc(CO)n2nc(C(F)(F)F)cc12` showed an IC50 in assay [1] of 31 nM. Also, in assay [4], the inhibition result is “inactive”. Also, in assay [3], the Activity was determined as 26%.

In assay [1], `COc1cccc2c(C(=O)Nc3c(Cl)c[n+]([O-])cc3Cl)c(C(F)(F)F)nn12` came in with an IC50 of 16600 nM. Moreover, the inhibition result in assay [4] is “inactive”.

In the case of `COc1ccc(C(=O)Nc2c(Cl)cncc2Cl)c2cc(C(C)=O)nn12`, the IC50 in assay [1] is 2.9 nM; in assay [2], over 100000 nM. The Activity in assay [3] was found to be 41%.

The compound `COc1ccc(C(=O)Nc2c(Cl)c[n+]([O-])cc2Cl)c2cc(C3CC3)nn12` displayed an IC50 in assay [1] of 2.8 nM. Also, the inhibition result in assay [4] was “inactive”. Besides, the Activity in assay [6] was 62%.

In the case of `COc1ccc(C(=O)Nc2c(Cl)cncc2Cl)c2cc(C#N)nn12`, the IC50 was 4.1 nM in assay [1] and over 100000 nM in assay [2]. For the same compound, the Activity in assay [3] amounted to 66%.

In assay [1], `COc1ccc(C(=O)Cc2ccncc2)c2cc(C(F)(F)F)nn12` registered an IC50 of 9.4 nM. Also, the inhibition result in assay [4] is “inactive”.

For the compound `COc1ccc(CNc2c(Cl)cncc2Cl)c2cc(C(F)(F)F)nn12`, the IC50 was 150 nM in assay [1] and 71400 nM in assay [2].

In assay [1], `COCc1cc2c(C(=O)Nc3c(Cl)cncc3Cl)ccc(OC)n2n1` registered an IC50 of 13 nM. For the same compound, the inhibition result in assay [4] is “inactive”. In addition, the Activity in assay [6] is recorded as 54%.

In turn, `COc1ccc(C(=O)Nc2c(Cl)c[n+]([O-])cc2Cl)c2cc(C(C)C)nn12` gave an IC50 in assay [1] of 10 nM. The Activity in assay [5] turned out to be 63%. Further, the inhibition result in assay [4] is “inactive”.

In assay [1], `COc1ccc(C(=O)Nc2c(Cl)cncc2Cl)c2cc(C=O)nn12` returned an IC50 of 9.8 nM. The inhibition entry in assay [4] was “inactive”. Also, in assay [3], the Activity was found to be 64%.

As for `COc1ccc(/C=C/c2c(Cl)cncc2Cl)c2cc(C(F)(F)F)nn12`, in assay [1], the IC50 stood at 5.5 nM. Also, the inhibition entry in assay [4] was “inactive”. Besides, in assay [3], the Activity stood at 39%.

Turning to `COc1ccc(C(O)Cc2c(Cl)cncc2Cl)c2cc(C(F)(F)F)nn12` (centres undefined), the IC50 in assay [1] amounted to 39 nM. Moreover, the inhibition result in assay [4] is “inactive”.

For `COc1ccc(C(=O)Nc2c(Cl)cncc2Cl)c2cc(C3CC3)nn12`, the IC50 in assay [1] is 0.51 nM; in assay [2], over 100000 nM. Besides, the Activity in assay [3] is 71%.

Compound `COc1ccc(C(=O)Nc2c(Cl)cncc2Cl)c2cc(C(F)(F)F)nn12` registered an IC50 in assay [1] of 0.27 nM. Also, the inhibition entry in assay [4] is “inactive”. In assay [6], the Activity worked out at 60%.

For the compound `CCc1cc2c(C(=O)Nc3c(Cl)c[n+]([O-])cc3Cl)ccc(OC)n2n1`, the IC50 in assay [1] was found to be 9.4 nM. The inhibition result in assay [4] is “inactive”. Also, in assay [3], the Activity is recorded as 40%.

Consider `COc1ccc(C(=O)Nc2c(Cl)cncc2Cl)c2cc(C(C)C)nn12`, for which the IC50 in assay [1] came to 110 nM. Moreover, the inhibition result in assay [4] is “inactive”. Also, in assay [3], the Activity was determined as 64%.

Compound `COc1ccc(NC(=O)c2c(Cl)cncc2Cl)c2cc(C(F)(F)F)nn12` returned a 50% inhibitory concentration (IC50) in assay [1] of 240 nM. In addition, in assay [4], the inhibition entry is “inactive”.

Compound `COc1ccc(C(=O)Nc2c(Cl)cncc2Cl)c2cc(C(F)F)nn12` had an IC50 in assay [1] of 0.2 nM. For the same compound, the inhibition entry in assay [4] was “inactive”. In assay [3], the Activity worked out at 32%.

With `COc1cccc2c(C(=O)Nc3c(Cl)cncc3Cl)c(C(F)(F)F)nn12`, the IC50 in assay [1] was 6130 nM. Further, the inhibition result in assay [4] was “inactive”.

In turn, `CNc1ccc(C(=O)Nc2c(Cl)cncc2Cl)c2cc(C(F)(F)F)nn12` registered an IC50 in assay [1] of 0.19 nM. Moreover, the inhibition result in assay [4] is “inactive”. Also, in assay [3], the Activity worked out at 33%.

On to `COc1ccc(/C=C/c2ccncc2)c2cc(C(F)(F)F)nn12`, for which the IC50 in assay [1] came to 15 nM; in assay [2], 67100 nM. Also, the Activity in assay [3] came out at 57%.

On to `COc1ccc(C(=O)C(=O)c2ccncc2)c2cc(C(F)(F)F)nn12`, for which half-maximal inhibition in assay [1] (IC50) was put at 1260 nM. Besides, the inhibition entry in assay [4] is “inactive”.

With `O=C(Nc1c(Cl)cncc1Cl)c1ccc(OC(F)F)c(OCC2CC2)c1` [ROFLUMILAST], the Activity in assay [5] was 59%. In assay [2], the half-inhibitory concentration (IC50) was over 100000 nM.

As for `COCc1ccc(C(=O)Nc2c(Cl)cncc2Cl)c2cc(C(F)(F)F)nn12`, in assay [1], the midpoint of inhibition, the IC50, lay at 4.5 nM. Moreover, in assay [4], the inhibition entry was “inactive”. For the same compound, in assay [3], the Activity was found to be 31%.

`COc1ccc(CCc2ccncc2)c2cc(C(F)(F)F)nn12`: in assay [1], half-maximal inhibition (IC50) required 4.9 nM. The inhibition entry in assay [4] is “inactive”. Besides, the Activity in assay [3] amounted to 55%.

In turn, `CC(=O)c1ccc(C(=O)Nc2c(Cl)cncc2Cl)c2cc(C(F)(F)F)nn12` returned an IC50 in assay [1] of 21 nM. Besides, in assay [4], the inhibition result was “inactive”. Further, the Activity in assay [3] stood at 43%.

Turning to `COc1ccc(C(=O)c2ccncc2)c2cc(C(F)(F)F)nn12`, in assay [1], the IC50 was determined as 980 nM. Also, the inhibition result in assay [4] is “inactive”.

Turning to `COc1ccc(C(=O)Nc2c(Cl)cncc2Cl)c2cc(C(C)O)nn12` (centres undefined), the IC50 in assay [1] turned out to be 83 nM. Besides, the inhibition entry in assay [4] was “inactive”. Besides, in assay [3], the Activity is given as 60%.

Take `COc1ccc(C2=NNC(=O)CC2C)c2cc(C(F)(F)F)nn12` (single isomer, unassigned; (-)): in assay [6], the Activity amounted to 79%.

Consider `COc1ccc(C(=O)Nc2c(Cl)cncc2Cl)c2cc(/C=N/O)nn12`, for which the results for the IC50 in assay [1] and in assay [2] were 5.1 nM and over 100000 nM, respectively. The Activity in assay [3] is 41%.

Turning to `CCc1cc2c(C(=O)Nc3c(Cl)cncc3Cl)ccc(OC)n2n1`, the 50% inhibitory concentration (IC50) in assay [1] is 7 nM; in assay [2] it was over 100000 nM. For the same compound, the Activity in assay [3] is 53%.

`COc1ccc(C(=O)Nc2c(Cl)c[n+]([O-])cc2Cl)c2ccnn12`: in assay [1], it took 2.7 nM to reach half-maximal inhibition (IC50). For the same compound, in assay [4], the inhibition result was “inactive”. In addition, the Activity in assay [3] stood at 57%.

Regarding `COCc1cc2c(C(=O)Nc3c(Cl)c[n+]([O-])cc3Cl)ccc(OC)n2n1`, the IC50 in assay [1] was 50 nM. Besides, the inhibition entry in assay [4] is “inactive”. Besides, the Activity in assay [3] stood at 18%.

`COc1ccc(C(=O)Nc2c(Cl)c[n+]([O-])cc2Cl)c2cc(C(F)(F)F)nn12`: the IC50 in assay [1] came out at 1.5 nM. The inhibition result in assay [4] was “inactive”. Further, in assay [3], the Activity is on record as 77%.

The record behind these values is ChEMBL document CHEMBL2424518, “Phosphodiesterase inhibitors. Part 6: design, synthesis, and structure-activity relationships of PDE4-inhibitory pyrazolo[1,5-a]pyridines with anti-inflammatory activity” (Bioorg Med Chem Lett, 2013).
